“Also recorded” adds a separate entry of the source. Non-standard residues stand in square brackets, D forms with d. Residues, ends and D or L forms follow the SMILES beside them. *: point of attachment. Biotin = O=C1N[C@H]2[C@H](CS[C@H]2CCCCC(=O)*)N1
Legend:
[1] = Displacement of nonyl acridine orange (NAO) from POPC-CL liposomes; assay type: binding, bovine
Experimental: (§1) The resulting multilamellar vesicles were vortexed lightly and sized into small unilamellar vesicles by heated bath sonication for 25 min. All liposomes were cooled to ambient temperature before use.
(§2) Interaction of biotin-HDAP2 Peptide with Phospholipids: The ability of biotin-HDAP2 to displace nonyl acridine orange (NAO), a fluoroprobe known to selectively bind CL was determined. Interaction of biotin-HDAP2 with phospholipids was examined by measuring changes in the fluorescence spectra of 3 μM NAO (Molecular Devices, Sunnyvale, CA)) with excitation at 480 nm. CL and POPC in liposomes were use at 30 μM. Dose response curves were done with 30 μM CL, biotin-HDAP2 (0, 2.5, 5, 10, 20, and 30 μM), and 3 μM of NAO (ex/em at 480 nm/520 nm). All experiments were done in 10 mM Hepes (pH 7.4) to optimize electrostatic interactions of peptides with phospholipids.

[2] = tested on: retinal ganglion cells and optic nerve; experiment: Optic nerve protection with elevated intraocular pressure; assay type: in vivo, DBA/2J mice
Experimental: A series of experiments were conducted to determine if biotin-HDAP2 preserves mitochondrial ultrastructure in retinal ganglion cells (RGC) axons, whether biotin-HDAP2 preserves the integrity of axons in the optic nerve and/or whether biotin-HDAP2 treatment improves RGC survival. To these ends, 100 DBA/2J mice (8 and 12 weeks old) were obtained with the goal of studying them at 6 and 12 months of age. A small number of animals were examined at 6 months, but they had not yet developed elevated intraocular pressure (IOP), and no differences were observed between treatment conditions in optic nerve appearance or retinal ganglion cell distribution. Therefore, further analysis was delayed until animals reached 10 months, when elevated IOP was reliably present.
Optic nerves from all three experimental conditions (control, untreated and biotin-HDAP2-treated) have been embedded for ultrastructural analysis.
Nerves were obtained from 10-month-old animals who had high IOP for at least 3 consecutive months. Differences between control, untreated and biotin-HDAP2-treated groups were striking and correlated closely with cumulative intraocular pressure (cIOP) exposure.
All retinas in this study were stained with RBPMS, imaged using confocal microscopy, and RGCs were automatically counted using ImageJ. To assess the overall effect of biotin-HDAP2 treatment on RGC survival, RGC counts between biotin-HDAP2-treated and Untreated animals were compared across all available time points.

ARPE-19 cells [3] = experiment: Restoration of mitochondrial membrane potential after 3 days of serum starvation (TMRM); assay type: cell-based; settings: 2 hours incubation after 3 days of serum starvation
Description: Serum starvation for 3 days reduced mitochondrial membrane potential in serum-free controls (SFC), compared to regular cells grown on serum (FBS). […] Error bars represent SEM (n=5) ***P<0.001.

MDBK cells = experiment: NAO binding to mitochondria in MDBK cells; assay type: cell-based, bovine; settings: NAO 1 μM, biotin-HDAP2 10 μM
[4] = tested on: retinal ganglion cells (RGCs); experiment: Retinal ganglion cell survival in retinal explants; settings: Brn3a labeling
Description: FIG. 8 illustrates retinal explants labeled with Brn3a (green) to label retinal ganglion cells (RGCs), ToPro3 to label all cell nuclei (red) and ChAT to label displaced amacrine cells (blue).

[5] = NAO fluorescence with POPC liposomes; assay type: binding
Experimental: as §1, §2

ARPE-19 cells [6] = experiment: Mitochondrial potential in the presence of CCCP (TMRM); assay type: cell-based; settings: 10 μM CCCP, TMRM
Experimental: Effects of peptides on mitochondrial potential in the presence of Carbonyl cyanide m-chlorophenylhydrazone (CCCP): ARPE-19 cells (ATTC-CRL-2302) (5×10^4 cells) were seeded in 35 mm glass dishes in DMEM/F12 medium with 10% FBS for 24 hr. On the day of the experiment, cells were cultured in DMEM/F12 in the presence of different concentrations of biotin-HDAP2 for 60 min (FIG. 17B). Then, cells were incubated with 10 μM CCCP in the presence of 5 nM TMRM, 100 nM Mito View Green, and 10 μg/ml Hoechst 33342 for 15 min at 37° C. Fluorescent images were immediately obtained with a Nikon Eclipse 50i fluorescence microscope (60× objective) using FITC (Mito View Green), Texas Red (TMRM), and DAPI (Hoechst) filters. Images were collected from three independent experiments, using 4-6 random fields for each treatment group, and imaged and analyzed as described for NR.

Q: Which results are given for N=C(N)NCCC[C@@H](NC(=O)[C@H](Cc1ccccc1)NC(=O)[C@H](Cc1ccccc1)NC(=O)[C@@H](CCCNC(=N)N)NC(=O)CCCC[C@@H]1SC[C@@H]2NC(=O)N[C@@H]21)C(N)=O [biotin-HDAP2, Biotin-dArg-Phe-Phe-dArg-NH2] (Biotin-[dR]FF[dR]-NH2)?
A: effect on intensity of NAO fluorescence [1]: decreased the intensity of NAO fluorescence to background levels; also recorded: decreases the intensity of NAO fluorescence with POPC-CL liposomes in a dose-dependent manner; optic nerve axon morphology ([2]; 10-month-old animals, high IOP at least 3 months): morphologically comparable to those of young controls; RGC counts (mean) ([2]; all available time points, n=23): 26,267±14,440; RGC counts compared with other groups ([2]; elevated cIOP): significantly higher RGC counts overall; also recorded: RGC counts similar to controls; mitochondrial ultrastructure in RGC axons (TEM) ([2]; nerves exposed to high IOP): more numerous and exhibit preserved cristae and greater structural integrity; restoration of mitochondrial membrane potential (ARPE-19 cells [3]): restored mitochondrial membrane potential within 2 hours; NAO binding to mitochondria (MDBK cells): inhibited NAO binding to mitochondria in MDBK cells; water solubility (Water solubility): water soluble; survival of retinal ganglion cells in retinal explants [4]: promoted survival of retinal ganglion cells in retinal explants; effect on interaction between NAO and POPC liposomes [5]: did not interfere with the interaction between NAO and the POPC liposomes; effect on CCCP-mediated mitochondrial depolarization (ARPE-19 cells [6]): prevented CCCP-mediated decreases in the mitochondrial membrane potential in a dose-dependent manner; effect on CCCP-mediated mitochondrial depolarization (ARPE-19 cells [6]; listed as Biotin-HDAP2): prevented mitochondrial depolarization in a dose-dependent manner

Reference: patent US20250276996A1, “CATIONICALLY-ENFRAMED HIGH DENSITY AROMATIC PEPTIDES” (Research Foundation of the City University of New York, priority 2022, published 2025)
